The values that follow come from US7902373B2 (Pfizer Inc, priority 2006, dated 2011).

By IC50 is commonly meant the concentration that inhibits the measured activity by half.

For the assay, the target named is human recombinant H-PGDS (Homo sapiens, UniProt O60760). Briefly: Fluorescence intensity h-PGDS TBA enzyme assay. Type of assay: biochemical. Conditions: Examples up to 622 (and 3a, 3b).
human recombinant H-PGDS, sequence (O60760 whole entry): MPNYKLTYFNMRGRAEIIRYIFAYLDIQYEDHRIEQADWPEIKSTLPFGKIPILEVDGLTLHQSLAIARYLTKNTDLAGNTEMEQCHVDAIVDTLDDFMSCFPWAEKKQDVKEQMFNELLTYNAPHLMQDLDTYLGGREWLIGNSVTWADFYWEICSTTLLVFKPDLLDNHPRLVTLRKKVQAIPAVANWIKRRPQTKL
As to `N#Cc1cccc(CN2CCC(NC(=O)c3ccc(-c4cccc(F)c4)nc3)CC2)c1` [Example 238, N-[1-(3-Cyanobenzyl)piperidin-4-yl]-6-(3-fluorophenyl)nicotinamide], the IC50 came out at 0.135 nM. As for `O=C(NC1CCN(Cc2cc(F)ccc2F)CC1)c1ccc(-c2cccc(F)c2)nc1` [Example 239, N-[1-(2,5-Difluorobenzyl)piperidin-4-yl]-6-(3-fluorophenyl)nicotinamide], the figure is 0.245 nM; as for `O=C(NC1CCN(Cc2cccc(F)c2F)CC1)c1ccc(-c2cccc(F)c2)nc1` [Example 240, N-[1-(2,3-Difluorobenzyl)piperidin-4-yl]-6-(3-fluorophenyl)nicotinamide], 0.181 nM; as for `O=C(NC1CCN(Cc2ccc3c(c2)OCCO3)CC1)c1ccc(-c2cccc(F)c2)nc1` [Example 241, N-[1-(2,3-Dihydro-14-benzodioxin-6-ylmethyl)piperidin-4-yl]-6-(3-fluorophenyl)nicotinamide], 2.19 nM. In the case of `Cn1cc(CN2CCC(NC(=O)c3ccc(-c4cccc(F)c4)nc3)CC2)c2ccccc21` [Example 242, 6-(3-Fluorophenyl)-N-{1-[(1-methyl-1H-indol-3-yl)methyl]piperidin-4-yl}nicotinamide], the IC50 stood at 0.781 nM. As for `CC(=O)n1cc(CN2CCC(NC(=O)c3ccc(-c4cccc(F)c4)nc3)CC2)c2ccccc21` [Example 243, N-{1-[(1-Acetyl-1H-indol-3-yl)methyl]piperidin-4-yl}-6-(3-fluorophenyl)nicotinamide], the figure is 1.03 nM.

As to `O=C(NC1CCN(Cc2c(F)cccc2F)CC1)c1ccc(-c2cccc(F)c2)nc1` [Example 244, N-[1-(2,6-Difluorobenzyl)piperidin-4-yl]-6-(3-fluorophenyl)nicotinamide], the IC50 is 0.288 nM. Take `COc1ccc(CN2CCC(NC(=O)c3ccc(-c4cccc(F)c4)nc3)CC2)cc1Br` [Example 245, N-[1-(3-Bromo-4-methoxybenzyl)piperidin-4-yl]-6-(3-fluorophenyl)nicotinamide]: the IC50 stood at 1.2 nM. On to `O=C(NC1CCN(Cc2cnc3ccccc3c2)CC1)c1ccc(-c2cccc(F)c2)nc1` [Example 246, 6-(3-Fluorophenyl)-N-[1-(quinolin-3-ylmethyl)piperidin-4-yl]nicotinamide], for which the IC50 amounted to 1.97 nM. Turning to `COc1ccc(CN2CCC(NC(=O)c3ccc(-c4cccc(F)c4)nc3)CC2)cc1F` [Example 247, N-[1-(3-Fluoro-4-methoxybenzyl)piperidin-4-yl]-6-(3-fluorophenyl)nicotinamide], the IC50 is 0.653 nM.

`O=C(NC1CCN(Cc2cc(F)cc(F)c2)CC1)c1ccc(-c2cccc(F)c2)nc1` [Example 248, N-[1-(3,5-Difluorobenzyl)piperidin-4-yl]-6-(3-fluorophenyl)nicotinamide]: the IC50 was 1.05 nM. Turning to `CCOc1cc(CN2CCC(NC(=O)c3ccc(-c4cccc(F)c4)nc3)CC2)ccc1OC` [Example 249, N-[1-(3-Ethoxy-4-methoxybenzyl)piperidin-4-yl]-6-(3-fluorophenyl)nicotinamide], the IC50 is 1.17 nM. For the compound `Cc1nn(C)c(C)c1CN1CCC(NC(=O)c2ccc(-c3cccc(F)c3)nc2)CC1` [Example 250, 6-(3-Fluorophenyl)-N-{1-[(1,3-trimethyl-1H-pyrazol-4-yl)methyl]piperidin-4-yl}nicotinamide], the IC50 was 0.409 nM.

For `CC(C)(C)CN1CCC(NC(=O)c2ccc(-c3cccc(F)c3)nc2)CC1` [Example 251, N-[1-(2,2-Dimethylpropyl)piperidin-4-yl]-6-(3-fluorophenyl)nicotinamide], the IC50 came out at 0.623 nM. The value for `O=C(NC1CCN(Cc2c[nH]c3ccc(F)cc23)CC1)c1ccc(-c2cccc(F)c2)nc1` [Example 252, N-{1-[(5-Fluoro-1H-indol-3-yl)methyl]piperidin-4-yl}-6-(3-fluorophenyl)nicotinamide] was 0.865 nM; that for `CCOc1ccc(CN2CCC(NC(=O)c3ccc(-c4cccc(F)c4)nc3)CC2)cc1OC` [Example 253, N-[1-(4-Ethoxy-3-methoxybenzyl)piperidin-4-yl]-6-(3-fluorophenyl)nicotinamide] was 1.45 nM. For the compound `O=C(NC1CCN(Cc2c[nH]c(=O)[nH]c2=O)CC1)c1ccc(-c2cccc(F)c2)nc1` [Example 254, N-{1-[(2,4-Dioxo-1234-tetrahydropyrimidin-5-yl)methyl]piperidin-4-yl}-6-(3-fluorophenyl)nicotinamide], the IC50 came to 1.68 nM. Turning to `O=C(NC1CCN(Cc2ccccc2OCCO)CC1)c1ccc(-c2cccc(F)c2)nc1` [Example 255, 6-(3-Fluorophenyl)-N-{1-[2-(2-hydroxyethoxy)benzyl]piperidin-4-yl}nicotinamide], the IC50 was 0.738 nM. As for `O=C(NC1CCN(Cc2cccc(OCCO)c2)CC1)c1ccc(-c2cccc(F)c2)nc1` [Example 256, 6-(3-Fluorophenyl)-N-{1-[3-(2-hydroxyethoxy)benzyl]piperidin-4-yl}nicotinamide], the concentration for half-maximal inhibition (IC50) came out at 0.397 nM.

For the compound `COc1cc(CN2CCC(NC(=O)c3ccc(-c4cccc(F)c4)nc3)CC2)cc(Cl)c1O` [Example 257, N-[1-(3-Chloro-4-hydroxy-5-methoxybenzyl)piperidin-4-yl]-6-(3-fluorophenyl)nicotinamide], the IC50 came to 0.58 nM.

Turning to `O=C(NC1CCN(Cc2ccc(OCCO)cc2)CC1)c1ccc(-c2cccc(F)c2)nc1` [Example 258, 6-(3-Fluorophenyl)-N-{1-[4-(2-hydroxyethoxy)benzyl]piperidin-4-yl}nicotinamide], the IC50 was 1.24 nM. For the compound `CS(=O)(=O)c1ccc(CN2CCC(NC(=O)c3ccc(-c4cccc(F)c4)nc3)CC2)cc1` [Example 259, 6-(3-Fluorophenyl)-N-{1-[4-(methylsulfonyl)benzyl]piperidin-4-yl}nicotinamide], the IC50 was 1.68 nM. As for `COc1ccc(CN2CCC(NC(=O)c3ccc(-c4cccc(F)c4)nc3)CC2)c(Cl)c1OC` [Example 260, N-[1-(2-Chloro-3,4-dimethoxybenzyl)piperidin-4-yl]-6-(3-fluorophenyl)nicotinamide], the figure is 0.578 nM; as for `O=C(NC1CCN(Cc2cc3ccccc3nn2)CC1)c1ccc(-c2cccc(F)c2)nc1` [Example 261, N-[1-(Cinnolin-3-ylmethyl)piperidin-4-yl]-6-(3-fluorophenyl)nicotinamide], 1.48 nM; as for `Cc1nc2ccccc2nc1CN1CCC(NC(=O)c2ccc(-c3cccc(F)c3)nc2)CC1` [Example 262, 6-(3-Fluorophenyl)-N-{1-[(3-methylquinoxalin-2-yl)methyl]piperidin-4-yl}nicotinamide], 3.86 nM. Consider `O=C(NC1CCN(Cc2cnc3ccccc3n2)CC1)c1ccc(-c2cccc(F)c2)nc1` [Example 263, 6-(3-Fluorophenyl)-N-[1-(quinoxalin-2-ylmethyl)piperidin-4-yl]nicotinamide], for which the IC50 was determined as 1.16 nM. Regarding `Cn1cc(CN2CCC(NC(=O)c3ccc(-c4cccc(F)c4)nc3)CC2)c(=O)n(C)c1=O` [Example 264, N-{1-[(1,3-Dimethyl-2,4-dioxo-1,2,3,4-tetrahydropyrimidin-5-yl)methyl]piperidin-4-yl}-6-(3-fluorophenyl)nicotinamide], the IC50 worked out at 2 nM. Take `COC(=O)c1ccc2c(CN3CCC(NC(=O)c4ccc(-c5cccc(F)c5)nc4)CC3)c[nH]c2c1` [Example 265, Methyl 3-{[4-({[6-(3-fluorophenyl)pyridin-3-yl]carbonyl}amino)piperidin-1-yl]methyl}-1H-indole-6-carboxylate]: the IC50 turned out to be 4.29 nM. On to `Cc1nc(CN2CCC(NC(=O)c3ccc(-c4cccc(F)c4)nc3)CC2)c[nH]1` [Example 266, 6-(3-Fluorophenyl)-N-{1-[(2-methyl-1H-imidazol-4-yl)methyl]piperidin-4-yl}nicotinamide], for which the IC50 turned out to be 2.15 nM. The value for `O=C(NC1CCN(Cc2cc(Cl)c(O)c(Cl)c2)CC1)c1ccc(-c2cccc(F)c2)nc1` [Example 267, N-[1-(3,5-Dichloro-4-hydroxybenzyl)piperidin-4-yl]-6-(3-fluorophenyl)nicotinamide] was 0.994 nM; that for `CC(C)(CN1CCC(NC(=O)c2ccc(-c3cccc(F)c3)nc2)CC1)NC(=O)OC(C)(C)C` [Example 268, tert-Butyl {2-[4-({[6-(3-fluorophenyl)pyridin-3-yl]carbonyl}amino)piperidin-1-yl]-1,1-dimethylethyl}carbamate] was 8.08 nM; that for `CN(CCCN1CCC(NC(=O)c2ccc(-c3cccc(F)c3)nc2)CC1)C(=O)OC(C)(C)C` [Example 269, tert-Butyl {3-[4-({[6-(3-fluorophenyl)pyridin-3-yl]carbonyl}amino)piperidin-1-yl]propyl}methylcarbamate] was 3.5 nM.

As for `Cc1c(CN2CCC(NC(=O)c3ccc(-c4cccc(F)c4)nc3)CC2)c(=O)n(C)c(=O)n1C` [Example 270, 6-(3-Fluorophenyl)-N-{1-[(1,3,6-trimethyl-2,4-dioxo-1,2,3,4-tetrahydropyrimidin-5-yl)methyl]piperidin-4-yl}nicotinamide], the IC50 turned out to be 0.507 nM. Take `CCN(CC)C(=O)c1ccc(CN2CCC(NC(=O)c3ccc(-c4cccc(F)c4)nc3)CC2)cc1` [Example 271, N-(1-{4-[(Diethylamino)carbonyl]benzyl}piperidin-4-yl)-6-(3-fluorophenyl)nicotinamide]: the IC50 was determined as 5.62 nM. Regarding `O=C(NC1CCN(Cc2ccc[nH]c2=O)CC1)c1ccc(-c2cccc(F)c2)nc1` [Example 272, 6-(3-Fluorophenyl)-N-{1-[(2-oxo-1,2-dihydropyridin-3-yl)methyl]piperidin-4-yl}nicotinamide], the IC50 was 0.816 nM. As to `CN(C)CCCOc1ccccc1CN1CCC(NC(=O)c2ccc(-c3cccc(F)c3)nc2)CC1` [Example 273, N-(1-{2-[3-(Dimethylamino)propoxy]benzyl}piperidin-4-yl)-6-(3-fluorophenyl)nicotinamide], the IC50 was determined as 1.11 nM. As for `CCn1nc(C)c(CN2CCC(NC(=O)c3ccc(-c4cccc(F)c4)nc3)CC2)c1C` [Example 274, N-{1-[(1-Ethyl-3,5-dimethyl-1H-pyrazol-4-yl)methyl]piperidin-4-yl}-6-(3-fluorophenyl)nicotinamide], the figure is 2.57 nM.
